Data taken from patent US11535622B2, “Pyrrolo[1,2-b] pyridazine derivatives” (Gilead Sciences, Inc., priority 2018, dated 2022).
Read-outs that look alike come from different tables or passages of the source.

How the values were obtained:
[1] = pKa determination (pKa PRO Analyzer); format: physicochemical
Protocol: Sample Preparation: A stock solution of test compound in dimethyl sulfoxide (DMSO) having a final concentration of 10 mM was prepared and used in all experiments. The DMSO stocks were thawed, spun, and sonicated in a 40° C. water bath to facilitate dissolution.
The compounds were then transferred into 24 consecutive wells of a 96 well PCR plate for analysis with the aqueous method. […] The compounds were transferred into 24 consecutive wells of a 96 well plate for analysis using the co-solvent method.
Analysis: All data was obtained using a pKa PRO Analyzer (AATI, Ames, Iowa). For the aqueous method, an electrophoretic separation is performed in parallel across 24 different pH values, providing a direct measure of overall compound charge vs. pH. The compounds are detected by UV at 228 nm. The average pH spacing between buffer points is 0.4 pH units covering a typical pH range of 1.7-11.2.
The average pH spacing between buffer points is 0.4 pH units covering a pH range of 1.7-11.2. Four consecutive CE runs are performed for each compound starting with 60% co-solvent buffers and decreasing to 30% co-solvent buffers.
Norfloxacin is used as a daily performance-indicating standard.
Calculation of Results: The total number of pKa values is predicted by relating mobility and compound molecular weight using pKa Estimator® software (AATI, Ames, Iowa).

[2] = tested on: human cryopreserved hepatocytes; experiment: Metabolic stability in cryopreserved hepatocytes; format: in vitro ADME; conditions: 1 μM test compound
Protocol: Metabolic Stability in Cryopreserved Hepatocytes: Complete HT medium was prepared by the addition of 1 mL Torpedo Antibiotic Mix to 45 mL of InVitroGRO™ HT medium. Supplemented KHB medium consisted of KrebsHenseleit buffer with amikacin (84 μg/mL), calcium chloride (1 mM), gentamicin (84 μg/mL), HEPES (20 mM), heptanoic acid (4.2 μM) and sodium bicarbonate (28.5 mM) and the pH was adjusted to 7.4 at 37° C. using 1 M NaOH or 1 M HCl. The human cryopreserved hepatocytes were pooled from ten adult donors (Celsis, Lot: HBZ).
Vials containing cryopreserved hepatocytes were removed from liquid nitrogen and immediately immersed in a 37° C. water bath. The vials were shaken gently until the contents had thawed and were then immediately emptied into 48 mL of pre warmed Complete HT Medium in a 50 mL conical tube. Cells remaining in the vial were resuspended with 1.0 mL of pre warmed Complete HT Medium and added to the conical tube. The tube was capped and then gently inverted several times to resuspend the hepatocytes. The cell suspension was centrifuged at 50×g at room temperature for 5 minutes and the supernatant discarded. The cell pellet was loosened by gently swirling the centrifuge tube and Supplemented KHB medium was added to obtain a target density of 2×10^6 cells/mL. The total cell count and the proportion of viable cells were determined by Trypan Blue dye exclusion using a hemocytometer.
For incubations, aliquots of hepatocyte suspension (250 μL containing 500,000 cells) were added to 250 μL of 2 μM test compound or metabolic stability controls in supplemented KHB in duplicate wells in a 24-well plate. Final concentration in the incubations were 1×10^6 cells/mL and 1 μM test compound. 7-Hydroxycoumarin and testosterone, compounds known to be efficiently metabolized by hepatocytes, were used as positive controls in parallel incubations ([…] final concentration of each compound). The incubation was carried out with gentle shaking at 37° C. under a humid atmosphere of 95% air/5% CO2 (v/v). Aliquots (50 μL) were removed after 0, 1, 3, and 6 hours and added to 100 μL IS/Q quenching solution. After termination, 150 μL of water was added, the plates were centrifuged at 3000×g for 10 min, and aliquots of the supernatant were analyzed on a Micromass Quattro Premier mass spectrometer coupled to an Agilent 1200 Series HPLC system with a Leap Technologies HTC PAL autosampler as described below.
Liquid Chromatography-Mass Spectrometry: Quantification of test compound and metabolic stability controls was performed by analyte/internal standard peak area ratios (PAR) measured on a Micromass Quattro Premier XL tandem triple quadrupole mass spectrometer coupled to an Agilent 1200 Series HPLC system with a Leap Technologies HTC PAL autosampler. The column used was a Phenomenex® MercuryMS™, Synergi Max-RP (100 Å pore size, 2.5 μm particle size, 20×2.0 mm). Mobile Phase A consisted of 0.2% (v/v) formic acid in 99% water/1% acetonitrile (v/v). Mobile Phase B consisted of 0.2% (v/v) formic acid in 5% water/95% acetonitrile (v/v). Elution was achieved by the following series of linear gradients: initial conditions of 0% B, holding for 30 s, then increasing to 100% B over 90 s, and then returning to the initial conditions over 1 s. The system was allowed to re-equilibrate for a minimum of 60 s between injections. The sample injection volume was 10 μL.

TNFα = experiment: IRAK4 monocyte TNFα cell based assay (LPS stimulated); parameters: species or system human
Protocol: IRAK4 Monocyte TNFα Cell Based Assay Procedure:
The cell suspension was then plated at a density of 5,000 cells/well onto black 384 well Greiner clear bottom plates. Plates were pre-spotted with test compounds and serially diluted in DMSO where 40 nL/well were delivered using the Echo 550 acoustic liquid dispenser (Labcyte®) for a final DMSO concentration of 0.1%. Plated cells were treated with compound for 1 hour at 37° C. Cells were then stimulated with 50 pg/ml of LPS (Sigma) excluding outside columns of plate used for unstimulated cell control wells. Cells were incubated for an additional 4 hours at 37° C. Cells were then spun out of the media and 5 μl of sample were taken and analyzed for total TNFα content using the TR-FRET Human TNFα detection system (CisBio). This system utilizes two labeled antibodies (cryptate and XL665) that bind to two different epitopes of the TNFα molecule and produce FRET signal proportional to the concentration of TNFα in the sample. Detection antibodies are mixed 50:50 and 5 μL were dispensed into each well. Plates were covered with clear seals and incubated at room temp overnight. […] Percent of control was calculated as follows: % Control=100×(RatioSample−Ratio0% stimulation)/(Ratio100% Stimulation−Ratio0% Stimulation) where unstimulated cells (0% stimulation) were the negative control and stimulated cells (100% stimulation) were used as the positive control.

IRAK4 enzyme = IRAK4 enzyme (Homo sapiens (Human), UniProt Q9NWZ3); experiment: IRAK4 biochemical assay (HTRF/TR-FRET); conditions: 500 μM ATP
Protocol: IRAK4 enzyme (Carna Biosciences, Chuo-ku, Kobe, Japan) activity was measured by detecting phosphorylated peptide substrate formation using an antibody against the phosphorylated peptide substrate. This is a time-resolved fluorescence resonance energy transfer (TR-FRET) immunoassay, based on the STK1 KnEASE Assay (Cisbio, Bedford, Mass.). […] Compounds diluted in DMSO were spotted into 384 well plates using a Labcyte® Echo 550 Liquid Handling System prior to addition of IRAK4 enzyme and peptide substrate. Reaction solutions were delivered using a Multi-Flo (Bio-Tek Instruments). The enzyme and peptide solution was incubated with compound for 15 minutes at room temp before the reaction was initiated by the addition of ATP.

[3] = biological target: cloned hERG potassium channel encoded by the KCNH2 gene (Homo sapiens (Human), UniProt Q12809); experiment: Automated hERG assay (FASTPatch, QPatch); format: cell-based; conditions: HEK293T cells, patch clamp, 0.3-30 uM
Protocol: The FASTPatch® Assay (Charles River) was used to examine the in vitro effects of various compounds on the cloned hERG potassium channel encoded by the KCNH2 gene and stably expressed in HEK293T cells. Vehicle, test and control article formulations were prepared by diluting DMSO stock solutions in HB-PS (HEPES-buffered physiological saline solution), and were delivered to cells via the QPatch robot pipetting system to a final concentration of 0.3% DMSO. […] The positive control, 50 nM Cisparide, was applied in the same manner. Cell membrane currents were recorded at room temperature with up to 48 parallel patch clamp amplifiers in the QPatch HT® or QPatch HTX® system, and only cells with validated whole-cell recordings (seal resistance ≥200 MO and leak current ≤25% channel current) were used. Onset and block of hERG current was measured using a stimulus voltage pattern consisting of a 500 ms prepulse to −40 mV, a 2-second activating pulse to +40 mV, followed by a 2-second test pulse to −40 mV. The pulse pattern was repeated continuously at 10-second intervals from a holding potential of −80 mV. TurboSol analysis for test compound solubility was performed for each concentration tested using a Nephelostar reader measuring light scatter from a 635 nm laser source. […]

[4] = human monocytes, LPS 50 pg/ml, TNFα by TR-FRET, read-out: EC50 TNF

Chain of IRAK4 enzyme (Q9NWZ3 whole entry): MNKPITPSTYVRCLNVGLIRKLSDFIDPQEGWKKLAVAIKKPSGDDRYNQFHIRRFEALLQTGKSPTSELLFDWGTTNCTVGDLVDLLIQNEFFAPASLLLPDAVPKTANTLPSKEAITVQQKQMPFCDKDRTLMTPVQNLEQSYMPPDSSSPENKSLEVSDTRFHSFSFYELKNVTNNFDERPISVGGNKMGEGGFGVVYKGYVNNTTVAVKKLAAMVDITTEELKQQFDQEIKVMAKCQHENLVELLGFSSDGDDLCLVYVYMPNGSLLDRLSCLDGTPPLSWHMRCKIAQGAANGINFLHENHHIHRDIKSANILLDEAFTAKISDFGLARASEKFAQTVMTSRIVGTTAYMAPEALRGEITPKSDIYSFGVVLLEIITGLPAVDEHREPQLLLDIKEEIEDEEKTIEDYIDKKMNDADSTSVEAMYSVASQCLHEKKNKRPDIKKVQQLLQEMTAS
Chain of cloned hERG potassium channel encoded by the KCNH2 gene (Q12809 whole entry): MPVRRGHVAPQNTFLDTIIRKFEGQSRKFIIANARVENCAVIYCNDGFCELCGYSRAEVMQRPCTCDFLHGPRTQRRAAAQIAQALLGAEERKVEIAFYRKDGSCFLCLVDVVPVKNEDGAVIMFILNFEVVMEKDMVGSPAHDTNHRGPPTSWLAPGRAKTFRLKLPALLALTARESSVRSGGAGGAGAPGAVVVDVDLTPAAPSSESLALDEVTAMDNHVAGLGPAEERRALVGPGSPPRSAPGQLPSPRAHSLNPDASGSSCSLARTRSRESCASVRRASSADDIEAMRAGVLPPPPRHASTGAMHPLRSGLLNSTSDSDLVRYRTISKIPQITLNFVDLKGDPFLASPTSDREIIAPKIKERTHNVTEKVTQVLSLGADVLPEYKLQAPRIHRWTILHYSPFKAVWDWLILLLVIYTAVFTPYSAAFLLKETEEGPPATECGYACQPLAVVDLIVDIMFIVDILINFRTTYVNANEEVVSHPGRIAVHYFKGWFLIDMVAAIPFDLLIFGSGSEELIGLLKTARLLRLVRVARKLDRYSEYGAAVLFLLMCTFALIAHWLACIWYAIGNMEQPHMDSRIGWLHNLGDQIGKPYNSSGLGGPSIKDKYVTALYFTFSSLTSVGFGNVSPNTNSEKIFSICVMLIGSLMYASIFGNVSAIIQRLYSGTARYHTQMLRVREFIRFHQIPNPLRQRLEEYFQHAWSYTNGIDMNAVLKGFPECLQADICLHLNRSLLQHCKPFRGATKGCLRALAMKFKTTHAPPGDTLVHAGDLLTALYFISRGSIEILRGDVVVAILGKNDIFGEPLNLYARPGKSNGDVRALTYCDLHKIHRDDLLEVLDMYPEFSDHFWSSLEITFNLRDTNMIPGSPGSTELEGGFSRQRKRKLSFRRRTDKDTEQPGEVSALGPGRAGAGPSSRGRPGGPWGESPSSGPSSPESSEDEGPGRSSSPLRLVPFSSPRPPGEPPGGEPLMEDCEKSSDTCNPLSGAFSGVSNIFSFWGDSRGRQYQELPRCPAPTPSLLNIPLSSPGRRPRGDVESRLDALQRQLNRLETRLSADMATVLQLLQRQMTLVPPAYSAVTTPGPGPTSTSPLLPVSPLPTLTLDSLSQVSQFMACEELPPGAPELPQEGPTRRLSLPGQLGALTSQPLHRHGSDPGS

Row | Compound | pKa [1] | Human Hep. Stability [2] [mL/min/kg] | EC50 (TNFα; [4]) [µM] | IC50 (IRAK4 enzyme) [µM] | EC50 (TNFα; protein adjusted, competitive equilibrium dialysis, human plasma versus CCM with 10% FBS, read-out: Protein Adj. EC50 TNF) [µM] | IC50 [3] [µM]
1 | CC(C)(C#N)Nc1cc(-c2ccc3cc(C#N)cnn23)ncc1C(=O)NC[C@@H](F)C(C)(C)O [Compound 9, (R)-4-((2-cyanopropan-2-yl)amino)-6-(3-cyanopyrrolo[1,2-b]pyridazin-7-yl)-N-(2-fluoro-3-hydroxy-3-methylbutyl)nicotinamide] | 4.8 | 4.33 | 0.049 | < 0.001 |  | 
2 | CC[C@H](C#N)Nc1cc(-c2ccc3cc(C#N)cnn23)ncc1C(=O)NC[C@@H](F)C(C)(C)O [Compound 5, 4-(((R)-1-cyanopropyl)amino)-6-(3-cyanopyrrolo[1,2-b]pyridazin-7-yl)-N-((R)-2-fluoro-3-hydroxy-3-methylbutyl)nicotinamide] |  |  | 0.06 | 0.001 |  | 
3 | CC(C)(O)[C@H](F)CNC(=O)c1cnc(-c2ccc3cc(C#N)cnn23)cc1NCC#N [Compound 2, (R)-4-((cyanomethyl)amino)-6-(3-cyanopyrrolo[1,2-b]pyridazin-7-yl)-N-(2-fluoro-3-hydroxy-3-methylbutyl)nicotinamide] | 5.1 | 2.17 |  |  |  | 
4 | C[C@H](C#N)Nc1cc(-c2ccc3cc(C#N)cnn23)ncc1C(=O)NC[C@@H](F)C(C)(C)O [Compound 3, 4-(((R)-1-cyanoethyl)amino)-6-(3-cyanopyrrolo[1,2-b]pyridazin-7-yl)-N-((R)-2-fluoro-3-hydroxy-3-methylbutyl)nicotinamide] | 4.9 | 1.3 |  |  |  | 
5 | CC(C)Nc1cc(-c2ccc3cc(C#N)cnn23)ncc1C(=O)NC[C@@H](F)C(C)(C)O [A, reference compound] | 6.1 | 3.33 | 0.023 | < 0.001 | 0.504 | 3.9
6 | CC(C)(O)[C@H](F)CNC(=O)c1cnc(-c2ccc3cc(C#N)cnn23)cc1NC1(C#N)CC1 [Compound 10, (R)-4-((1-cyanocyclopropyl)amino)-6-(3-cyanopyrrolo[1,2-b]pyridazin-7-yl)-N-(2-fluoro-3-hydroxy-3-methylbutyl)nicotinamide] |  | 3.67 | 0.035 | < 0.001 |  | 

Continued, in another order:

Row | pKa [1] | Human Hep. Stability [2] [mL/min/kg] | EC50 (TNFα; [4]) [µM] | IC50 (IRAK4 enzyme) [µM] | EC50 (TNFα; protein adjusted, competitive equilibrium dialysis, human plasma versus CCM with 10% FBS, read-out: Protein Adj. EC50 TNF) [µM] | Compound | IC50 [3] [µM]
7 | 6.6 | 0.83 |  |  |  | CNc1cc(-c2ccc3cc(C#N)cnn23)ncc1C(=O)NC[C@@H](F)C(C)(C)O [Compound 1, (R)-6-(3-cyanopyrrolo[1,2-b]pyridazin-7-yl)-N-(2-fluoro-3-hydroxy-3-methylbutyl)-4-(methylamino)nicotinamide] | 
8 |  |  | 0.164 |  |  | CC(C)(O)[C@H](F)CNC(=O)c1cnc(-c2ccc3cc(C#N)cnn23)cc1NCCC#N [Compound 7, (R)-4-((2-cyanoethyl)amino)-6-(3-cyanopyrrolo[1,2-b]pyridazin-7-yl)-N-(2-fluoro-3-hydroxy-3-methylbutyl)nicotinamide] | 
9 | 5.9 | 2.33 | 0.033 | < 0.001 |  | CC(C)(O)[C@H](F)CNC(=O)c1cnc(-c2ccc3cc(C#N)cnn23)cc1NCCCC#N [Compound 8, (R)-4-((3-cyanopropyl)amino)-6-(3-cyanopyrrolo[1,2-b]pyridazin-7-yl)-N-(2-fluoro-3-hydroxy-3-methylbutyl)nicotinamide] | 3.5
10 |  |  | 0.267 | 0.005 |  | CC[C@@H](C#N)Nc1cc(-c2ccc3cc(C#N)cnn23)ncc1C(=O)NC[C@@H](F)C(C)(C)O [Compound 6, 4-(((S)-1-cyanopropyl)amino)-6-(3-cyanopyrrolo[1,2-b]pyridazin-7-yl)-N-((R)-2-fluoro-3-hydroxy-3-methylbutyl)nicotinamide] | 
